The record followed here is US20230233569A1 (Revolution Medicines, Inc., priority 2020, published 2023).

A value given as a limit tells only on which side of the number the result lay.

Assay [1] relates to AKT1/2/3 (Ser473) phosphorylation (mTORC2) in MDA-MB-468 cells. The assay is described as follows: Cell based AlphaLISA assay, mTOR kinase cellular assay: inhibition of p-Akt (S473) in MDA-MB-468 cells. To be noted: Homo sapiens, read-out: pIC50 for Inhibition of mTORC1 and mTORC2 Substarte Phosphorylation p-AKT1/2/3-(S473) (converted). The gist of the method: (§1)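 MDA-MB-468 cells treated with compound at 0.017-1,000 nM for two to four hours at 37° C, then lysed. Phospho-AKT1/2/3 S473, 4EBP1 T37/46 and P70S6K T389 quantified by AlphaLISA SureFire Ultra in duplicate; IC50 from normalized regression with control-based normalization.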
For orientation: Alpha assays give light when donor and acceptor beads are brought close together.

In assay [2] the test system is P70S6K (Thr389) phosphorylation (mTORC1) in MDA-MB-468 cells. Description: Cell based AlphaLISA assay, mTOR kinase cellular assay: inhibition of p-P70S6K (T389) in MDA-MB-468 cells. Conditions: Homo sapiens, read-out: pIC50 for Inhibition of mTORC1 and mTORC2 Substarte Phosphorylation p-P70S6K-(T389) (converted). As for the experimental part: Cell Based AlphaLISA Assays for Determining IC50 For Inhibition of P-Akt (S473), P-4E-BP1 (T37/46), and P-P70S6K (T389) in MDA-MB-468 Cells
mTOR Kinase Cellular Assay
To measure functional activity of mTORC1 and mTORC2 in cells the phosphorylation of 4EBP1 (Thr37/46) and P70S6K (Thr389), and AKT1/2/3 (Ser473) was monitored using AlphaLisa SureFire Ultra Kits (Perkin Elmer). MDA-MB-468 cells (ATCC® HTB-132) were cultured in 96-well tissue culture plates and treated with compounds in the disclosure at concentrations varying from 0.017-1,000 nM for two to four hours at 37° C. Incubations were terminated by removal of the assay buffer and addition of lysis buffer provided with the assay kit. Samples were processed according to the manufacturer's instructions. The Alpha signal from the respective phosphoproteins was measured in duplicate using a microplate reader (Envision, Perkin-Elmer or Spectramax M5, Molecular Devices). Inhibitor concentration response curves were analyzed using normalized IC50 regression curve fitting with control based normalization.

In assay [3] the test system is 4EBP1 (Thr37/46) phosphorylation (mTORC1) in MDA-MB-468 cells. Description: Cell based AlphaLISA assay, mTOR kinase cellular assay: inhibition of p-4E-BP1 (T37/46) in MDA-MB-468 cells. Conditions: Homo sapiens, read-out: pIC50 for Inhibition of mTORC1 and mTORC2 Substarte Phosphorylation p-4E-BP1-(T37/46) (converted). The gist of the method:
as §1

As for `CO[C@H]1C[C@@H]2CC[C@@H](C)[C@@](O)(O2)C(=O)C(=O)N2CCCC[C@H]2C(=O)O[C@H]([C@H](C)C[C@@H]2CC[C@@H](OC(=O)NCc3cnc(N4CCN(c5ncc(C(=O)NCCOCCOCCOCCOCCC(=O)N6CCc7cc(Cn8nc(-c9cnc%10[nH]ccc%10c9)c9c(N)ncnc98)ccc7C6)cn5)CC4)nc3)[C@H](OC)C2)CC(=O)[C@H](C)/C=C(\C)[C@@H](O)[C@@H](OC)C(=O)[C@H](C)C[C@H](C)/C=C/C=C/C=C/1C` [Example 33], the IC50 is above 1000 nM in assay [1], at most 1 nM in assay [2] and at most 3.16 nM in assay [3].
Turning to `CO[C@H]1C[C@@H]2CC[C@@H](C)[C@@](O)(O2)C(=O)C(=O)N2CCCC[C@H]2C(=O)O[C@H]([C@H](C)C[C@@H]2CC[C@@H](OC(=O)N(C)Cc3cnc(N4CCN(c5ncc(C(=O)NCCOCCOCCOCCOCCC(=O)N6CCc7cc(Cn8nc(-c9cnc%10[nH]ccc%10c9)c9c(N)ncnc98)ccc7C6)cn5)CC4)nc3)[C@H](OC)C2)CC(=O)[C@H](C)/C=C(\C)[C@@H](O)[C@@H](OC)C(=O)[C@H](C)C[C@H](C)/C=C/C=C/C=C/1C` [Example 34], the IC50 in assay [1] was above 1000 nM; in assay [2], at most 1 nM; in assay [3], above 1000 nM.
On to `CO[C@H]1C[C@@H]2CC[C@@H](C)[C@@](O)(O2)C(=O)C(=O)N2CCCC[C@H]2C(=O)O[C@H]([C@H](C)C[C@@H]2CC[C@@H](OC(=O)N3CCc4nc(N5CCN(c6ncc(C(=O)NCCOCCOCCOCCOCCC(=O)NCCCCn7nc(-c8cnc9[nH]ccc9c8)c8c(N)ncnc87)cn6)CC5)ncc4C3)[C@H](OC)C2)CC(=O)[C@H](C)/C=C(\C)[C@@H](O)[C@@H](OC)C(=O)[C@H](C)C[C@H](C)/C=C/C=C/C=C/1C` [Example 35], for which the IC50 was 3.16 to 31.6 nM in assay [1], at most 1 nM in assay [2] and at most 3.16 nM in assay [3].
Taken in the same sequence, the figures for `CO[C@H]1C[C@@H]2CC[C@@H](C)[C@@](O)(O2)C(=O)C(=O)N2CCCC[C@H]2C(=O)O[C@H]([C@H](C)C[C@@H]2CC[C@@H](OC(=O)N3CCc4nc(N5CCN(c6ncc(C(=O)NCCOCCOCCOCCOCCC(=O)N7CCc8cc(Cn9nc(-c%10cnc%11[nH]ccc%11c%10)c%10c(N)ncnc%109)ccc8C7)cn6)CC5)ncc4C3)[C@H](OC)C2)CC(=O)[C@H](C)/C=C(\C)[C@@H](O)[C@@H](OC)C(=O)[C@H](C)C[C@H](C)/C=C/C=C/C=C/1C` [Example 36] were above 1000 nM, at most 1 nM and at most 3.16 nM.
Take `CO[C@H]1C[C@@H]2CC[C@@H](C)[C@@](O)(O2)C(=O)C(=O)N2CCCC[C@H]2C(=O)O[C@H]([C@H](C)C[C@@H]2CC[C@@H](OC(=O)N3CCN(c4ncc(C(=O)NCCOCCOCCOCCOCCOCCC(=O)N5CCc6cc(Cn7nc(-c8cnc9[nH]ccc9c8)c8c(N)ncnc87)ccc6C5)cn4)CC3)[C@H](OC)C2)CC(=O)[C@H](C)/C=C(\C)[C@@H](O)[C@@H](OC)C(=O)[C@H](C)C[C@H](C)/C=C/C=C/C=C/1C` [Example 37]: the figures for the IC50 in assay [1], in assay [2] and in assay [3] were above 1000 nM, at most 1 nM and at most 3.16 nM, respectively.
Taken in the same sequence, the figures for `CO[C@H]1C[C@@H]2CC[C@@H](C)[C@@](O)(O2)C(=O)C(=O)N2CCCC[C@H]2C(=O)O[C@H]([C@H](C)C[C@@H]2CC[C@@H](OC(=O)N3CCc4nc(N5CCN(CCOCCOCCOCCOCCOCCC(=O)N6CCc7cc(Cn8nc(-c9cnc%10[nH]ccc%10c9)c9c(N)ncnc98)ccc7C6)CC5)ncc4C3)[C@H](OC)C2)CC(=O)[C@H](C)/C=C(\C)[C@@H](O)[C@@H](OC)C(=O)[C@H](C)C[C@H](C)/C=C/C=C/C=C/1C` [Example 38] were above 1000 nM, at most 1 nM and above 1000 nM.
`CO[C@H]1C[C@@H]2CC[C@@H](C)[C@@](O)(O2)C(=O)C(=O)N2CCCC[C@H]2C(=O)O[C@H]([C@H](C)C[C@@H]2CC[C@@H](OC(=O)N3CCc4nc(N5CCN(c6ncc(C(=O)NCCOCCOCCOCCOCCC(=O)N7CCc8cc(Cn9nc(-c%10ccc%11oc(N)nc%11c%10)c%10c(N)ncnc%109)ccc8C7)cn6)CC5)ncc4C3)[C@H](OC)C2)CC(=O)[C@H](C)/C=C(\C)[C@@H](O)[C@@H](OC)C(=O)[C@H](C)C[C@H](C)/C=C/C=C/C=C/1C` [Example 39]: the IC50 in assay [1] is at most 3.16 nM; in assay [2], at most 1 nM; in assay [3] it was at most 3.16 nM.
On to `CO[C@H]1C[C@@H]2CC[C@@H](C)[C@@](O)(O2)C(=O)C(=O)N2CCCC[C@H]2C(=O)O[C@H]([C@H](C)C[C@@H]2CC[C@@H](OC(=O)NCc3cnc(N4CCN(c5ncc(C(=O)NCCOCCOCCOCCOCCC(=O)N6CCc7cc(Cn8nc(-c9ccc%10oc(N)nc%10c9)c9c(N)ncnc98)ccc7C6)cn5)CC4CO)nc3)[C@H](OC)C2)CC(=O)[C@H](C)/C=C(\C)[C@@H](O)[C@@H](OC)C(=O)[C@H](C)C[C@H](C)/C=C/C=C/C=C/1C` (stereo partly drawn) [Example 40], for which the results for the IC50 in assay [1], in assay [2] and in assay [3] were 3.16 to 31.6 nM, at most 1 nM and at most 3.16 nM, respectively.
On the same counts, the results for `CO[C@H]1C[C@@H]2CC[C@@H](C)[C@@](O)(O2)C(=O)C(=O)N2CCCC[C@H]2C(=O)O[C@H]([C@H](C)C[C@@H]2CC[C@@H](OC(=O)NCCOCCOCCOCCOCCC(=O)NCc3cnc(N4CCN(c5ncc(C(=O)N6CCc7cc(Cn8nc(-c9ccc%10oc(N)nc%10c9)c9c(N)ncnc98)ccc7C6)cn5)CC4)nc3)[C@H](OC)C2)CC(=O)[C@H](C)/C=C(\C)[C@@H](O)[C@@H](OC)C(=O)[C@H](C)C[C@H](C)/C=C/C=C/C=C/1C` [Example 46] are 3.16 to 31.6 nM, at most 1 nM and at most 3.16 nM.
On the same counts, the results for `CO[C@H]1C[C@@H]2CC[C@@H](C)[C@@](O)(O2)C(=O)C(=O)N2CCCC[C@H]2C(=O)O[C@H]([C@H](C)C[C@@H]2CC[C@@H](OC(=O)NCCOCCOCCOCCOCCC(=O)NCc3cnc(N4CCN(c5ncc(C(=O)NCCCCn6nc(-c7cnc8[nH]ccc8c7)c7c(N)ncnc76)cn5)CC4)nc3)[C@H](OC)C2)CC(=O)[C@H](C)/C=C(\C)[C@@H](O)[C@@H](OC)C(=O)[C@H](C)C[C@H](C)/C=C/C=C/C=C/1C` [Example 47] are 3.16 to 31.6 nM, at most 1 nM and at most 3.16 nM.
Taken in the same sequence, the figures for `CO[C@H]1C[C@@H]2CC[C@@H](C)[C@@](O)(O2)C(=O)C(=O)N2CCCC[C@H]2C(=O)O[C@H]([C@H](C)C[C@@H]2CC[C@@H](OC(=O)NCCOCCOCCOCCOCCOCCOCCC(=O)N3CCC(N4CCC(C(=O)N5CCc6cc(Cn7nc(-c8ccc9oc(N)nc9c8)c8c(N)ncnc87)ccc6C5)CC4)CC3)[C@H](OC)C2)CC(=O)[C@H](C)/C=C(\C)[C@@H](O)[C@@H](OC)C(=O)[C@H](C)C[C@H](C)/C=C/C=C/C=C/1C` [Example 48] were 3.16 to 31.6 nM, at most 1 nM and at most 3.16 nM.
`CO[C@H]1C[C@@H]2CC[C@@H](C)[C@@](O)(O2)C(=O)C(=O)N2CCCC[C@H]2C(=O)O[C@H]([C@H](C)C[C@@H]2CC[C@@H](OC(=O)NCCOCCOCCOCCOCCC(=O)NCc3cnc(N4CCN(c5ncc(C(=O)N6CCc7cc(Cn8nc(-c9ccc%10oc(N)nc%10c9)c9c(N)ncnc98)ccc7C6)cn5)CC4)nc3)[C@H](OC)C2)C[C@@H](O)[C@H](C)/C=C(\C)[C@@H](O)[C@@H](OC)C(=O)[C@H](C)C[C@H](C)/C=C/C=C/C=C/1C` [Example 49]: the figures for the IC50 in assay [1], in assay [2] and in assay [3] were 3.16 to 31.6 nM, at most 1 nM and at most 3.16 nM, respectively.
Taken in the same sequence, the figures for `CO[C@H]1C[C@@H]2CC[C@@H](C)[C@@](O)(O2)C(=O)C(=O)N2CCCC[C@H]2C(=O)O[C@H]([C@H](C)C[C@@H]2CC[C@@H](OC(=O)NCCOCCOCCOCCOCCC(=O)NCc3cnc(N4CCN(c5ncc(C(=O)N6CCc7cc(Cn8nc(-c9ccc%10oc(N)nc%10c9)c9c(N)ncnc98)ccc7C6)cn5)CC4)nc3)[C@H](OC)C2)C[C@@H](OC)[C@H](C)/C=C(\C)[C@@H](O)[C@@H](OC)C(=O)[C@H](C)C[C@H](C)/C=C/C=C/C=C/1C` [Example 50] were 31.6 to 1000 nM, at most 1 nM and at most 3.16 nM.
Consider `CO[C@H]1C[C@@H]2CC[C@@H](C)[C@@](O)(O2)C(=O)C(=O)N2CCCC[C@H]2C(=O)O[C@H]([C@H](C)C[C@@H]2CC[C@@H](OC(=O)NCc3cnc(N4CCN(C(=O)CCOCCN5CCN(c6ncc(C(=O)N7CCc8cc(Cn9nc(-c%10ccc%11oc(N)nc%11c%10)c%10c(N)ncnc%109)ccc8C7)cn6)CC5)CC4)nc3)[C@H](OC)C2)CC(=O)[C@H](C)/C=C(\C)[C@@H](O)[C@@H](OC)C(=O)[C@H](C)C[C@H](C)/C=C/C=C/C=C/1C` [Example 51], for which the IC50 in assay [1] was at most 3.16 nM; in assay [2], at most 1 nM; in assay [3] it was at most 3.16 nM.
